Test results published in PubChem BioAssay AID651733 (The Scripps Research Institute Molecular Screening Center, 2012).
pIC50: −log10 of the molar value. The source made the active and inactive calls. No rule for the calls is given here.

Target: Perilipin-5 (Homo sapiens) + 1-acylglycerol-3-phosphate O-acyltransferase ABHD5 (Homo sapiens) (UniProt Q00G26+Q8WTS1)
Experiment: ABHD5-PLIN5 interaction inhibitors, dose response, cell lysate, luminescence, proteins expressed in HEK293T (AID 651733);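 also: split Gaussia princeps luciferase complementation between ABHD5 and MLDP fusion proteins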

Sequence of Perilipin-5 (Homo sapiens) + 1-acylglycerol-3-phosphate O-acyltransferase ABHD5 (Homo sapiens) (Q00G26 whole entry, looked up, the tested form may be a part): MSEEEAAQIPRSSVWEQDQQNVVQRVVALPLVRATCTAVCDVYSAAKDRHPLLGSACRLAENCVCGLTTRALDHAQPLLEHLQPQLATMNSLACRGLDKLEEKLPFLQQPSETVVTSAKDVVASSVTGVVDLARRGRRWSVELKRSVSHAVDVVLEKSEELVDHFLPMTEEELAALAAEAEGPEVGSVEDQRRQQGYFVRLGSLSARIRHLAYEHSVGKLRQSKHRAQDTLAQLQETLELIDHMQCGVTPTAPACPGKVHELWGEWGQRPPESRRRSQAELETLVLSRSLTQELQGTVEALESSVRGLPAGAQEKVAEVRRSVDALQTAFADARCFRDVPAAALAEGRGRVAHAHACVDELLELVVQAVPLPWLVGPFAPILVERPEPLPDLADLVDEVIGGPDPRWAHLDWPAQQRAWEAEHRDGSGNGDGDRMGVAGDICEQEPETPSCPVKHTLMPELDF
Sequence of Perilipin-5 (Homo sapiens) + 1-acylglycerol-3-phosphate O-acyltransferase ABHD5 (Homo sapiens) (Q8WTS1 whole entry, looked up, the tested form may be a part): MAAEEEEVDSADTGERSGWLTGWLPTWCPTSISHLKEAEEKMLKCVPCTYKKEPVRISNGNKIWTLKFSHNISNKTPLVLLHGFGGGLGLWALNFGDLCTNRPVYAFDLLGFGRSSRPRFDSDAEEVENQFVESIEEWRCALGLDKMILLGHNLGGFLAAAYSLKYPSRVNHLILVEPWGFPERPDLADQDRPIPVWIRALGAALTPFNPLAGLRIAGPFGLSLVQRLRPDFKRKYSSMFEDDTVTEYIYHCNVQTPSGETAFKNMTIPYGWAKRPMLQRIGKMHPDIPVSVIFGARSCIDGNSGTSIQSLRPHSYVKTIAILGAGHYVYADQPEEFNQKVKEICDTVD

| Compound | pIC50 | IC50 |
| --- | --- | --- |
| CC(C)c1ccc(N2C=Nc3ccc(C(C)C)cc3C2)cc1 | 5.11 |  |
| CC1=CC(C)(C)Nc2ccc(OC(=O)CN3C(=O)C4CCCCC4C3=O)cc21 (centres undefined) | 5.40 |  |
| CC(C)(C)NC(=O)C(c1ccccc1F)n1c(=O)c(-c2ccco2)nc2ccccc21 (centres undefined) | 5.38 |  |
| COC/C=C/C1=CC2=CC(=O)C(C)(OC(=O)C3CCCC3)C(=O)C2=CO1 (centres undefined) | 5.41 |  |
| CCC(c1nc2ccccc2[nH]1)n1c(=O)c(-c2ccco2)nc2ccccc21 (centres undefined) | 5.26 |  |
| CCCCCNC(=O)C(c1cc2ccccc2o1)n1c(=O)c(-c2ccco2)nc2ccccc21 (centres undefined) | 5.51 |  |
| CCCNC(=O)Nc1ccc2c(c1)N(C)C(=O)c1ccccc1S2 | 5.38 |  |
| CCCCCNC(=O)C(c1cccc2ccccc12)n1c(=O)c(-c2ccco2)nc2ccccc21 (centres undefined) | 5.37 |  |
| O=c1c(-c2ccco2)nc2ccccc2n1C(CCc1ccccc1)c1nc2ccccc2[nH]1 (centres undefined) | 5.29 |  |
| COC(=O)c1cc(=O)n(Cc2ccco2)c(=Nc2ccc(F)cc2)s1 | 5.45 |  |
| C#CCN(C[C@@H]1[C@@H](OC(=O)NCc2ccc(OC)c(OC)c2)[C@@H](OC(=O)NCc2ccc(OC)c(OC)c2)Cn2c(=O)ccc(=O)n21)S(=O)(=O)c1ccc(C)cc1 | 5.24 |  |
| COc1cc2c(cc1OC)C(C)N(CCc1ccc(Cl)cc1)CC2 (centres undefined) | 5.27 |  |
| CN(C)CCCN(C(=O)CCc1ccccc1)c1nc2ccc(Br)cc2s1 |  | inactive |
| N#Cc1ccc(C(C(=O)NCc2ccccc2)n2c(=O)c(-c3ccco3)nc3ccccc32)cc1 (centres undefined) | 5.54 |  |
| CCC(C)NC(=O)Nc1ccc2c(c1)N(C)C(=O)c1ccccc1S2 (centres undefined) | 5.44 |  |
| O=C(NCc1ccccc1)C(c1ccc(-c2ccccc2)cc1)n1c(=O)c(-c2ccco2)nc2ccccc21 (centres undefined) | 5.22 |  |
| CCN1/C(=C/C=C/c2oc3ccc(-c4ccccc4)cc3[n+]2CC)Oc2ccc(-c3ccccc3)cc21 | 5.95 |  |
| O=CC1=C(c2ccccc2)Oc2ccccc2O1 | 5.52 |  |
| Cc1cccc(NC(=O)CSc2nnc(-c3ccco3)c(-c3ccco3)n2)c1 | 5.37 |  |
| CCOc1cc(/C=C2\CCC/C(=C\c3cc(Cl)c(O)c(OCC)c3)C2=O)cc(Cl)c1O | 5.45 |  |
| CCCCCCC=C1CCC(CN2CCCC2)C1=O (centres undefined) | 5.67 |  |
| C#CCOCCOCCOCCNc1nc(N2CCN(C(=O)CCCCCCCCCCNC(=O)[C@@H](CCSC)n3cc(CCO)nn3)CC2)nc(N2CCN(C(=O)CCCCCCCCCCNC(=O)[C@@H]([C@H](C)O)n3cc(C)nn3)CC2)n1 |  | inactive |
| Cc1cc(C)c(NC(=O)C[N+](C)(C)CC(O)COc2cccc3ccccc23)c(C)c1 (centres undefined) | 5.05 |  |
| CCC(C(=O)OCCN(CC)CC)c1ccccc1 (centres undefined) | 5.57 |  |
| O=C1/C(=C/c2cccnc2)CC/C1=C\c1cccnc1 | 5.37 |  |

| Compound | pIC50 | IC50 |
| --- | --- | --- |
| Cc1ccc(S(=O)(=O)N2C[C@H]3n4c(=O)ccc(=O)n4C[C@H](OC(=O)Nc4cccs4)[C@@]3(O)C2)cc1 | 5.06 |  |
| O=C(NC1CCCCC1)C(c1cc2ccccc2o1)n1c(=O)c(-c2ccco2)nc2ccccc21 (centres undefined) | 5.46 |  |
| O=C(NC1CCCCC1)C(c1cccc2ccccc12)n1c(=O)c(-c2ccco2)nc2ccccc21 (centres undefined) | 5.63 |  |
| COc1ccc(OCc2cn(CC(=O)c3ccc(O)cc3)nn2)cc1 | 5.25 |  |
| CCCCCNC(=O)C(c1ccccc1F)n1c(=O)c(-c2ccco2)nc2ccccc21 (centres undefined) | 5.62 |  |
| Cc1cccc(C)c1NC(=O)C(c1ccncc1)n1c(=O)c(-c2ccco2)nc2ccccc21 (centres undefined) |  | inactive |
| CCN1CCN(Cc2ccc(NC(=O)c3ccc(C)c(/C=C/c4cnc(Nc5cc(N6CCNCC6)nc(C)n5)cn4)c3)cc2C(F)(F)F)CC1 | 5.22 |  |
| CCCCCNC(=O)C(c1ccc(C#N)cc1)n1c(=O)c(-c2ccco2)nc2ccccc21 (centres undefined) | 5.18 |  |
| CC1CCN(S(=O)(=O)c2ccc(NC(=O)Cc3cccs3)cc2)CC1 | 5.09 |  |
| CCCCCNC(=O)C(c1ccc(OC)cc1)n1c(=O)c(-c2ccco2)nc2ccccc21 (centres undefined) | 5.47 |  |
| Cc1ccc(O)c(C(=O)/C=C/c2ccc3c(c2)OCCCO3)c1 | 5.31 |  |
| COc1ccc(NC(=O)c2cc3ccccc3cc2O)cc1 |  | inactive |
| CN1C(=O)/C(=C/C=C/c2ccco2)C(=O)NC1=S |  | inactive |
| CSc1nnc(NC(=O)c2nc(S(=O)(=O)Cc3ccccc3F)ncc2Cl)s1 | 5.44 |  |
| CSC(=Nc1ccccc1)N=C(SCc1ccccc1)N(C)C | 5.92 |  |
| CC(C)(C)NC(=O)C(c1ccnc2ccccc12)n1c(=O)c(-c2ccco2)nc2ccccc21 (centres undefined) | 5.09 |  |
| Cc1ccc(C)c(/C=C/C(=O)c2ccccc(=O)c2O)c1 | 5.24 |  |
| CN1[C@@H]2CC[C@H]1CC(OC1c3ccccc3CCc3ccccc31)C2 (some centres undefined) | 5.62 |  |
| CC(c1nc2ccccc2[nH]1)n1c(=O)c(-c2ccco2)nc2ccccc21 (centres undefined) | 5.21 |  |
| CC1=CC(C)(C)Nc2ccc(OC(=O)CN3C(=O)c4cccc5cccc(c45)C3=O)cc21 |  | inactive |
| COc1cc(/C=C/C(=O)c2ccc(Cl)s2)cc(OC)c1O | 5.19 |  |
| CC1CCN(S(=O)(=O)c2ccc(NC(=O)Cc3ccccc3)cc2)CC1 | 5.24 |  |
| CC(=O)Cc1cc(O)c2ccccc2c1OC(=O)c1ccc(Br)cc1 | 5.39 |  |
| COc1cc(C(C)=O)ccc1OCc1cn(CC(=O)c2ccc(O)cc2)nn1 | 5.24 |  |
| COCCNC(=O)/C(C#N)=C/c1cccc(/C=C(\C#N)C(=O)NCCOC)c1 | 5.96 |  |

| Compound | pIC50 | IC50 |
| --- | --- | --- |
| CCN(CC)CCNC(=O)c1ccc(NC(=O)c2cn(-c3ccccc3)nc2-c2cccs2)cc1 |  | inactive |
| CS(=O)(=O)c1ccc(C(=O)NCCN2C(=O)S/C(=C\c3cccnc3)C2=O)cc1[N+](=O)[O-] | 5.34 |  |
| CC1(C)C2CCC(CN=C(N)CSS(=O)(=O)O)C1C2 (centres undefined) | 5.33 |  |
| O=[N+]([O-])/C=C/c1cn(Cc2ccc(F)cc2)c2ccccc12 | 5.15 |  |
| CC(=O)Nc1ccc(OCc2cn(CC(=O)c3ccc(O)cc3)nn2)cc1 | 5.42 |  |
| O=C1C(=O)c2c(C(=O)c3ccccc3)coc2-c2ccccc21 | 5.22 |  |
| CC(=O)Oc1c(Cl)c(N2CCOCC2)c(OC(C)=O)c2ccccc12 | 5.09 |  |
| O=C(NCc1ccccc1)C(c1cc2ccccc2o1)n1c(=O)c(-c2ccco2)nc2ccccc21 (centres undefined) | 5.31 |  |
| CCCCCNC(=O)C(c1ccc(C(F)(F)F)cc1)n1c(=O)c(-c2ccco2)nc2ccccc21 (centres undefined) | 5.46 |  |
| CCOC(=O)c1c(NC(=O)/C=C/C(=O)O)sc(C)c1-c1ccc(C(C)(C)C)cc1 | 5.22 |  |
| Cc1cc(C)c2nc(NNC(=O)c3ccc(S(=O)(=O)N4CCCC(C)C4)cc3)sc2c1 (centres undefined) | 5.73 |  |
| CN(C)CCOc1ccc(-c2c(-c3ccccc3)sc3ccccc23)cc1 |  | inactive |
| CCSc1ccc2c(c1)N(CCCN1CCN(C)CC1)c1ccccc1S2 | 5.23 |  |
| CC(C)(C)NC(=O)C(c1cccc2ccccc12)n1c(=O)c(-c2ccco2)nc2ccccc21 (centres undefined) | 5.36 |  |
| CC(=O)Cc1cc(O)c2ccccc2c1OC(=O)c1ccccc1 | 5.27 |  |
| NC(=O)C(C(=O)/C=C/c1ccc(Cl)cc1)=C1SCCS1 |  | inactive |
| COc1ccc(C(C(=O)NC(C)(C)C)n2c(=O)c(-c3ccco3)nc3ccccc32)cc1 (centres undefined) | 5.45 |  |
| Cc1ccc(C(=O)c2coc3c2C(=O)C(=O)c2ccccc2-3)cc1 | 5.21 |  |
| Cc1cccc(C)c1NC(=O)C(c1ccc(C#N)cc1)n1c(=O)c(-c2ccco2)nc2ccccc21 (centres undefined) | 5.47 |  |
| O=C(NC1CCCCC1)C(c1ccnc2ccccc12)n1c(=O)c(-c2ccco2)nc2ccccc21 (centres undefined) | 5.35 |  |
| COC(=O)c1cc(=O)n(-c2ccc(F)cc2)c(=Nc2ccc(F)cc2)s1 | 5.48 |  |
| CC1Sc2ccc(S(=O)(=O)N3CCC(C(=O)NCc4ccc(Cl)cc4)CC3)cc2NC1=O (centres undefined) |  | inactive |
| Oc1ccc2sc(-c3ccccc3O)c(-c3ccc(OCCN4CCCCC4)cc3)c2c1 |  | inactive |
| Cc1ccc(C(=O)c2c(C)oc3c2C(=O)C(=O)c2ccccc2-3)cc1 | 5.23 |  |
| Cc1cccc(C)c1NC(=O)C(c1ccc(-c2ccccc2)cc1)n1c(=O)c(-c2ccco2)nc2ccccc21 (centres undefined) | 5.58 |  |

| Compound | pIC50 | IC50 |
| --- | --- | --- |
| Oc1c(C(c2ccccc2)N2CCCCC2)ccc2ccccc12 (centres undefined) | 5.76 |  |
| CC(=O)C1=C(c2cccc([N+](=O)[O-])c2)N(C(C)=O)n2c(C)nnc2S1 | 5.37 |  |
| Cc1cccc(C)c1NC(=O)C(c1ccc(C(F)(F)F)cc1)n1c(=O)c(-c2ccco2)nc2ccccc21 (centres undefined) | 5.43 |  |
| CC(C)(C)NC(=O)C(C1CC1)n1c(=O)c(-c2ccco2)nc2ccccc21 (centres undefined) | 5.15 |  |
| COCCN(CCOC)c1nc(N)c2c(N)nc3c(c2c1C#N)CC(=O)N3Cc1ccc(Cl)cc1 |  | inactive |
| O=C1NC(=O)N(Cc2ccc(F)cc2)C(=O)/C1=C\C=C\c1ccco1 | 5.64 |  |
| COc1ccccc1-c1cc(C(=O)NC2CCN(C)CC2)c2ccc(Cl)c(C)c2n1 |  | inactive |
| O=C(/C=C/c1ccc(NC(=O)c2ccccc2-c2ccccc2C(=O)O)cc1)c1ccccc1 | 5.08 |  |
| O=C(COc1ccccc1Cl)Nc1ccc(N2CCCC2)cc1 |  | > 39.9 µM (inactive) |
| Cc1nnc(NC(=O)c2nc(S(=O)(=O)Cc3ccccc3C)ncc2Cl)s1 | 5.23 |  |
| CC(C)(C)NC(=O)C(c1ccc(C(F)(F)F)cc1)n1c(=O)c(-c2ccco2)nc2ccccc21 (centres undefined) | 5.18 |  |
| O=C(NCc1ccccc1)C(c1ccccc1)n1c(=O)c(-c2ccco2)nc2ccccc21 (centres undefined) | 5.32 |  |
| CC(C)(C)NC(=O)C(c1cc2ccccc2o1)n1c(=O)c(-c2ccco2)nc2ccccc21 (centres undefined) | 5.40 |  |
| Cc1nc2c(o1)CCc1ccccc1C2N1CCN(C)CC1 (centres undefined) | 5.35 |  |
| CN(C)CCCNC(=O)c1ccc(-c2nc(-c3ccc(Cl)cc3)cs2)cc1 |  | inactive |
| O=C(/C(=C/c1ccccc1)n1cncn1)c1ccc(Cl)cc1Cl | 5.67 |  |
| O=C1CC(c2ccc(Cl)cc2)Oc2ccc(Cl)cc21 (centres undefined) | 5.50 |  |
| C#CCN(C[C@@H]1[C@@H](OC(=O)NCc2ccccc2F)[C@@H](OC(=O)NCc2ccccc2F)Cn2c(=O)ccc(=O)n21)S(=O)(=O)c1ccc(C)cc1 | 5.20 |  |
| CC1=CC(C)(C)Nc2ccc(OC(=O)c3cccnc3)cc21 | 5.49 |  |
| CN(C)c1ccc(Cc2cc3c(O)ccc(O)c3cc(Cc3ccc(N(C)C)cc3)c2=O)cc1 | 5.38 |  |
| CN(C)CCOC1(Cc2ccc(F)cc2)CCC(C(C)(C)C)CC1 (centres undefined) | 5.18 |  |
| COc1ccc(C)c2sc(N(CCN(C)C)C(=O)/C=C/c3cccs3)nc12 |  | > 13.3 µM (inactive) |
| CCOC(=O)C1CCCN(C(=O)c2cc(Nc3ccc(OC)cc3)nc3ccccc23)C1 (centres undefined) |  | inactive |
| CC(C)(C)NC(=O)C(c1ccc(-c2ccccc2)cc1)n1c(=O)c(-c2ccco2)nc2ccccc21 (centres undefined) | 5.59 |  |
